Assay [1] relates to cell surface receptors of immune cells (ACS). As to the kind of experiment: Adsorption of enzyme fragmented dHSA on affinity column with biotinylated cell surface proteins (ACS), MALDI-TOF ms. Type of assay: binding, human. The conditions noted are these: Table 5 A; peptides generated by trypsin degradation of dHSA. Here is the method: Based on the observation that immunoregulatory peptide sequences are present in serum albumin, there is the possibility that other sequences than the epitope of mAb A have immunoregulatory function. Therefore an artificial cell surface (ACS) was prepared as described in materials and methods. […]
To remove unfragmented albumin and enzyme, the sample was ultra filtered through an Amicon Ultra 4 (mw cut-off of 5000) or a Centriplus (mw cut-off 10000) centrifugal filter (Millipore AB, Solna, Sweden). The filtrate, containing fragmented dHSA without enzymes, was collected and diluted with PBS with Ca and Mg (GIBCO).
Buffy coats generated from 450 ml blood each was collected from 4 healthy donors. Erythrocytes were removed by sedimentation on 2% dextran T500 solution (Amersham Pharmacia Biotech AB, Uppsala Sweden) in 0.9% NaCl. Mononuclear cells (PBMC) were then isolated by Ficoll-Paque Plus (GE Healthcare Bioscience AB Sweden) density gradient centrifugation. The PBMC were then suspended in phosphate buffered saline (PBS) containing Ca and Mg (GIBCO) at a concentration of 10×10^6/ml. EZ Link Sulfo-NHS-biotin (Pierce USA) was added at a final concentration of 0.2 mg/ml and the mixture incubated on a shaker at room temperature for 10 min. Excess biotin was then removed by washing the PBMC in PBS. Biotinylated PBMC were then lysed by adding 1.0 ml ice-cold lysing buffer (50 mM Tris-HCL, pH 7.5, with 0.15 M NaCl, 5 mM MgCl2 containing 100 mM Octyl glucoside and 1 mM Phenylmethylsulfonyl fluoride) per 2×10^7 pelleted cells with gentle shaking, then incubated for 30 min. on ice. Debris was removed by centrifugation at 5000×g at 4° C. for 10 min and the supernatants was collected and pooled from all four donors. The lysate was then stored at −70° C. in polypropylene plastic tubes.
This amount of lysate corresponds to 36×10^7 mononuclear cells. It was added to a 1 ml Hitrap Streptavidin HP affinity column (Amersham Biosciences). To block possible remaining free biotin, 5 ml of 0.1 M glycine (Sigma) was added to the column. Unsaturated streptavidin on the column was then reacted with 150 ug biotin (Sigma) in binding buffer. The column was carefully washed with PBS and stored in PBS with 0.1% NaN3 at 4° C. until use.
27 ml biotinylated cell lysate in binding buffer (corresponding to 54×10^7 mononuclear cells) was added to 1.5 ml washed Streptavidin Sepharose HP (Amersham Biosciences). To block possible remaining free biotin, 25 ml of 0.1 M glycine (Sigma) was added to the Streptavidin Sepharose. Unsaturated streptavidin was then reacted with 225 μg biotin (Sigma) in binding buffer. The Streptavidin Sepharose was carefully washed in PBS. One ml of the biotinylated cell lysate coupled Streptavidin Sepharose was then packed in an empty column (Tricorn Empty High Performance Column, Amersham Bioscience) and washed with phosphate buffered saline (PBS) containing Ca and Mg (GIBCO).
The flow-through was collected with consideration taken to void volume and dilution of adsorbed sample by collecting in small portions of 0.2 ml. Thirty ul of each sample, including a control sample that has not been adsorbed, were dried in a Speed-Vac centrifuge.
Dried samples were reconstituted in 10 ul of 0.1% TFA. Zip Tip pipette tips (Millipore, USA) containing C18 reversed-phase media were used for desalting reconstituted samples. […] For the analysis of samples in the mass range 1500-9000 Da, one μl of each Zip Tip eluted sample was mixed with 1 μl of sinapinic acid ([…]). […] Mass identity search of resulting spectra was performed in the SwissProt or NCBI databases using MS-Fit.

The next assay concerns mAb A. The conditions noted are these: second trypsination of <30 kD fragments eluted from mAb A at pH 2.7. Here is the method: MALDI epitope mapping of mAb A based on antibody protection of proteolysis was repeated. This time a slightly different approach was used. Denatured HSA was incubated with mAb A. Albumin not bound by the antibody, was removed from the sample by size exclusion on an ultra filter. The remaining free mabs and the complexes of mab-albumin was then digested with trypsin (sequences of the albumin molecule to which mab is bound should resist the trypsin digestion). Small cleaved fragments of mab and unprotected albumin was then removed from the sample by ultrafiltration (30 kD). The complexes of mAb and bound albumin fragments were dissociated by lowering the pH to 2.7. Again ultrafiltration at 30 kD was performed to separate whole mAb from albumin fragments smaller than 30 kD.
Denatured HSA (80 μg) was incubated with mAb A (10 μg) in PBS for 18 h at room temperature. […] The retentate was diluted in 25 mM NH4HCO3 and again centrifuged as described above. The retentate was transferred to a sterile eppendorf microcentrifuge tube in 0.4 ml 25 mM NH4HCO3 and 0.4 μg sequencing grade modified trypsin (Promega) was added. Digestion was carried out at 37° C. over night with gentle agitation. Trypsin and free (not antibody-bound) albumin fragments were removed by ultrafiltration on a Amicon Ultra-4 filter (mw cut-off 30 000 Da, Millipore Co.) for 5 min at 3000 rpm. This was repeated three times. The retentate was then transferred to a new ultra filter where the mAb A was disassociated from bound albumin by the addition of 600 μl 0.1 M glycine-HCl, pH 2.7, for 30 min at room temperature after which the ultra filter was centrifuged for 10 min at 3000 rpm. The filtrate was transferred to a sterile Eppendorf microcentrifuge tube and neutralized with Tris-HCl, pH 9. The sample was then immediately dried over night in a SpeedVac vacuum concentrator. The samples were then dissolved in 16 μl of sequencing grade modified trypsin (at 5 μg/ml) (Promega) and incubated at 37° C. for 18 hours. Zip Tip pipette tips (Millipore) containing C18 chromatorgraphy media were used for desalting before the sample was analysed by MALDI TOF ms (see below).
1 μl of each sample of the tryptic digestion was mixed with 1 μl of a saturated solution of α-cyano-4-hydroxycinamic acid ([…]) in 70% acetonitrile/0.3% trifluoro acetic acid. 1 μl of that mixture was spotted on a stainless steel target plate and analysed using MALDI-TOF ms (Voyager-DE PRO, Applied Biosystems, CA, US) equipped with a 337 nm N2 laser. Database searches for masses corresponding to human serum albumin in the resulting spectra were performed in NCBI or SwissProt with MS-Fit as search engine.

For the next assay, the system named is PBMC. The assay can be described thus: LPS-induced IL-6 production by PBMC, effect of peptides. The format is cell-based, human. The conditions noted are these: PBMCs from one healthy control; lowest peptide concentration. Here is the method:
100 μl of culture medium consisting of RPMI1640 supplemented with 200 IU/ml penicillin, 200 μg/ml streptomycin, 4 mM L-glutamine (Sigma Chemical, Mo., US) and 20% fresh heat-inactivated autologous serum were added to un-coated or -pre-coated microtiter plates followed by 100 μl of PBMC suspension (5×10^4 lymphocytes) in RPMI/2% HSA with peptides at the indicated concentrations. Lipoplysaccharide (LPS, Sigma Chemical Co, MO, US) was added at a final concentration of 0.05 ng/ml. […] All assay conditions were set up in triplicate wells. Supernatants (SNs) were harvested after 24 hrs and residual cells were removed by centrifugation in a refrigerated centrifuge (Beckman) at 2600×g for 5 minutes. SNs were frozen and stored at −70° C. IL-6 in cell culture SNs was measured by ELISA using the DuoSet® ELISA development kit for human IL-6 (R&D Systems Europe, Ltd., Abingdon, UK) following the manufacturer's recommended procedures. The lower limit of detection was 3.1 pg/ml. Samples were analysed as mean of triplicate wells.

Another assay concerns PBMCs. As to the kind of experiment: PHA-induced proliferation of PBMC in the presence of albumin peptides and/or dHSA. Type of assay: cell-based, human. The source says:
Venous blood was drawn from healthy volunteers or from cancer patients in glass vacuum tubes with acid dextrose citrate solution A as anti-coagulant (Vacutainer, Becton Dickinson, Franklin Lakes, N.J.). Erythrocytes were removed by sedimentation on 2% dextran T500 solution (Amersham Pharmacia Biotech AB, Uppsala, Sweden) in 0.9% NaCl (this step was omitted for cultures with PHA-stimulation-see below). […] For cell cultures with PHA-stimulation, PBMC were washed in Hank's Balanced Salt Solution (HBSS) with 10% autologous plasma instead of RPMI/2% HSA. […] The cell suspension was stained with Turk's solution and the number of lymphocytes and monocytes in the PBMC preparation were counted in a hemocytometer. PBMCs were suspended in RPMI/2% HSA and the cell concentration adjusted to 5×10^5 lymphocytes/ml.
100 μl of the cell suspension were seeded into round-bottomed microtiter plates (Corning, N.Y., USA) followed by 100 μl of culture medium consisting of RPMI 1640 (Flow Laboratories, Irvine, Scotland) supplemented with 200 IU/ml Penicillin, 200 μg/ml Streptomycin (Flow laboratories) and 20% heat inactivated autologous serum. Phytohemagglutinin (PHA-P, Sigma Chemical Co, St. Louis, Mo.) at a final concentration of 5 or 10 μg/ml was then added.
All culture conditions were set up in triplicate wells. […] Mean values of disintegrations per minute (dpm) of triplicates were used for the calculations.

Assay [2] has as its target T1, β2-integrin LFA-1 (CD11a) (Homo sapiens, UniProt P20701).
T1 construct: endogenous in cells; host or cells: human PBMC (healthy controls, cancer patients) and THP-1 monocytic cell line (ATCC)
The assay can be described thus: Immunocytochemical staining of PBMC and THP-1 with anti-integrin (CD11a) antibody with or without albumin peptides. Type of assay: binding. The conditions noted are these: monocytic cell line THP-1; peptide 40 μg/ml preincubation. Here is the method:
Cytospin preparations of mononuclear blood cells from healthy controls, cancer patients and a monocytic cell line, THP-1, were prepared (as described under materials and methods), dried and stored at −70° C. In the immunocytological staining, unspecific staining was blocked by incubation with 10% human AB serum. Some of the slides were preincubated for 60 minutes with albumin peptides at a concentration of 40 μg/ml, added to this 10% AB serum, as indicated in the FIG. 8 A-F. The staining procedure was then continued as described in material and methods. The staining intensity of slides stained with and without preincubation with the peptides was recorded semi quantitatively using a standard light microscope.
PBMC were separated as described above. Cultured THP-1 cells (obtained from the American Type Culture Collection through LGL Nordic AB, Sweden) were carefully washed and suspended in RPMI1640. PBMC and THP-1 were immediately spun down on pre-cleaned microscope slides in a Shandon Cytospin (Shandon Scientific Ltd, UK) at 1000 RPM for 7 min at 2.5 or 5×10^4 cells per slide. The slides were left to dry at room temperature over night, after which they were wrapped in parafilm and stored at −70° C. Immediately before use, the cytospins were thawed and fixed with acetone for 5 min at room temperature. The cytospins were first blocked with 10% normal human AB-serum with and without albumin peptides (40 ␣g/ml) for 1 h before staining. Primary antibody, consisting of a monoclonal mouse anti-human CD11a (clone HI111, BD Biosciences) diluted in Tris buffered saline (TBS, pH 7.6) at 5 μg/ml (THP-1) or 1 µg/ml (PBMC), was added. The slides were incubated for 30 min and then washed in TBS followed by Envision-Alkaline Phosphatase (Dako Norden A/S, Denmark) for 30 min. After additional washing in TBS, the slides were incubated in alkaline phoshatase substrate consisting of Fast Red TR salt (Sigma), naphtol AS-MX (Sigma) and 5 mM levamisol (Sigma) to block endogenous alkaline phosphatase activity, for 20 min followed by washing in TBS. They were then counterstained in Mayer's haematoxylin for 1 minute and mounted in Glycergel (Dako Norden NS). Monoclonal mouse IgG1 against an irrelevant antigen (Aspergillus niger glukosoxidase, Dako Norden NS) was used as a negative control. All incubations were performed at room temperature in a moist chamber.
FIG. 24. Inhibition of the binding of anti-LFA-1, mab HI111, to mononuclear blood cells by 3028 peptide and fragments 3325 and 3218. A standard immunohistochemical staining procedure using acetone fixation, 10% human AB-serum for blocking, incubation with HI 111 and a secondary antibody (Ultravision, an alkaline phosphate conjugated polymer attached to Fab-fragments of goat anti-mouse Ig), followed by development with Fast Red. The slides were then mounted in Glycergel. Preincubation with peptides added to the AB serum was as follows: A. No peptide added, B. peptide 3028, C. The C-terminal part (3218), and D. The N-terminal part (3325).

T1 sequence (P20701 26-1170): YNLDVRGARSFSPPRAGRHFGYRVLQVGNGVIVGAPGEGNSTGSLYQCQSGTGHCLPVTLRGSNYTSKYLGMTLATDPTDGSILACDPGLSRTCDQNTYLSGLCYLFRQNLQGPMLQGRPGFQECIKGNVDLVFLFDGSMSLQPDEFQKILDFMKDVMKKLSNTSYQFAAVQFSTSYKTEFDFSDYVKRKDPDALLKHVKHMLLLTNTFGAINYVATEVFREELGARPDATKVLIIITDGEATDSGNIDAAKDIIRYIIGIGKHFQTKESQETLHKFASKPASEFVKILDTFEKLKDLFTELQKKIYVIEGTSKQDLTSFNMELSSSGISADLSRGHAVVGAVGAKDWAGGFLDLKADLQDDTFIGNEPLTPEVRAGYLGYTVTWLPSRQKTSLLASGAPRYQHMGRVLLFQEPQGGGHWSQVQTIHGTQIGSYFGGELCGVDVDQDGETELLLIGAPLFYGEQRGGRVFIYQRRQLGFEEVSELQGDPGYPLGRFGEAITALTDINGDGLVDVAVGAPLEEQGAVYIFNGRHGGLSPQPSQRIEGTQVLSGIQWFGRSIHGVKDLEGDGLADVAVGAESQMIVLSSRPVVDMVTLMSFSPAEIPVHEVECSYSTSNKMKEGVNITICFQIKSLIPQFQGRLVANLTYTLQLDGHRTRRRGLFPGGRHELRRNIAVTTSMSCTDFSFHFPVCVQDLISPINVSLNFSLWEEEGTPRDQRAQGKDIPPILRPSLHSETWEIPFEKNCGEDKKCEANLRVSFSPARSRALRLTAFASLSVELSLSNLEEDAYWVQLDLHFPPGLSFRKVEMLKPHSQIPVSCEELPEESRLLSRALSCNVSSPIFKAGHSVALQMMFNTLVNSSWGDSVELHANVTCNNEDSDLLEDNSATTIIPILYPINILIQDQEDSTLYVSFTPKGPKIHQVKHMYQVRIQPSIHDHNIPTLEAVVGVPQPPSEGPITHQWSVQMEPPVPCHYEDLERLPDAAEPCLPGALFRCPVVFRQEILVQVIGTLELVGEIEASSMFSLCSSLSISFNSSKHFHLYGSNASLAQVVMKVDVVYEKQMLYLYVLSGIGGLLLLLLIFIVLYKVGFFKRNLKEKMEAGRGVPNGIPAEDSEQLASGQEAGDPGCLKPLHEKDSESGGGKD
T1 sequence (P05107 23-769 partner): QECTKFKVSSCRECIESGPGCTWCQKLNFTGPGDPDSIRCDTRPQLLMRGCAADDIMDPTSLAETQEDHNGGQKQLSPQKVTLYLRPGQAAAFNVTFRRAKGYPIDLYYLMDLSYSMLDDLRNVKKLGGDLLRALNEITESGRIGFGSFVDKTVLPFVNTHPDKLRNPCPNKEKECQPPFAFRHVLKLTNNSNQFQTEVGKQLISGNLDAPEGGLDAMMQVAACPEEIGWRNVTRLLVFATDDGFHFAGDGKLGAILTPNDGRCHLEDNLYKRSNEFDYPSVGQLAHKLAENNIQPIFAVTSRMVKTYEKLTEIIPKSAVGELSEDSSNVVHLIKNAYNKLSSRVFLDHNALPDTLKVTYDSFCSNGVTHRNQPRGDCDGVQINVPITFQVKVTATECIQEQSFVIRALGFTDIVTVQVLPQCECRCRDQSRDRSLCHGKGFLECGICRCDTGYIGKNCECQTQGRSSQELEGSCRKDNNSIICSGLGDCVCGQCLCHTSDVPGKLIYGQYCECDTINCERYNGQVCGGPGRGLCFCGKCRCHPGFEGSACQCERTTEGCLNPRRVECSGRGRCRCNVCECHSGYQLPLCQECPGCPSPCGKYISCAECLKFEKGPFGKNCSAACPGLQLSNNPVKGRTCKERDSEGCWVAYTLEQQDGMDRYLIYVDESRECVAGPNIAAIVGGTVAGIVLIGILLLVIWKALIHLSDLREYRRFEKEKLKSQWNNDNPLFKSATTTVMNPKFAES

Substance YLYEIAR [162-168] came in with a Per cent adsorbed in assay [1] of 0.34 Per cent. The substance also had a Peak area in the assay on mAb A of 1035.

In turn, FQNALLVR [427-434] returned a Per cent adsorbed in assay [1] of 0.41 Per cent. In addition, the Peak area with mAb A came to 1345.

Turning to LVNEVTEFAK [066-075], the Per cent adsorbed in assay [1] is -0.02 Per cent. Besides, in the assay on mAb A, the Peak area was 1918.

For the substance ELFEQLGEYKF [peptide 2608], the “effect on LPS induced IL-6 production” value in the assay on PBMC is “inhibitory”. Moreover, the “effect on PHA induced proliferation of PBMCs” value in the assay on PBMCs (PHA 5 μg/ml, peptides 10 μg/ml, 5 healthy controls and 4 patients) was “stimulatory effect in ¼ controls whereas ¾ patients were stimulated”; with PBMCs (patient P46, lowest peptide concentration) it was “clear stimulatory activity”. The “effect on dHSA enhanced PHA induced proliferation” value with PBMCs (peptides 10 μg/ml, lower dHSA concentrations) is “stimulated the proliferative rate”; in the assay on PBMCs (peptides 10 μg/ml, two highest dHSA concentrations) it was “significantly inhibited the stimulatory activity”.

In assay [1], DDNPNLPR registered a Per cent adsorbed of 0.01 Per cent. Besides, the Peak area in the assay on mAb A worked out at 534.

Take KLDELRDEGKAS [peptide 2606]: the “effect on LPS induced IL-6 production” value in the assay with PBMC is “inhibitory”. Further, the “effect on binding of the mAb to LFA-1” value in assay [2] is listed as “clearly enhanced”.

Take CCTESLVNR [500-508]: the Per cent adsorbed in assay [1] is 0.26 Per cent. This substance yielded a Peak area in the assay on mAb A of 119.

Take LSQRFPK: the Peak area in the assay on mAb A is on record as 481.

LCTVATLR [098-105] displayed a Per cent adsorbed in assay [1] of 0.35 Per cent. This substance showed a Peak area in the assay with mAb A of 744.

In assay [1], LDELRDEGK [206-214] returned a Per cent adsorbed of 0.02 Per cent. Besides, in the assay on mAb A, the Peak area was found to be 644.

(Values after US9796777B2, “Methods of treating malignant tumors” (Canimguide Therapeutics AB, priority 2007, dated 2017).)
